Target: T1, CaCC (Ca^2+-activated chloride channels) in NCL-SG3-hsYFP cells (Homo sapiens, UniProt Q5XXA6)
T1 sequence (Q5XXA6 1-986): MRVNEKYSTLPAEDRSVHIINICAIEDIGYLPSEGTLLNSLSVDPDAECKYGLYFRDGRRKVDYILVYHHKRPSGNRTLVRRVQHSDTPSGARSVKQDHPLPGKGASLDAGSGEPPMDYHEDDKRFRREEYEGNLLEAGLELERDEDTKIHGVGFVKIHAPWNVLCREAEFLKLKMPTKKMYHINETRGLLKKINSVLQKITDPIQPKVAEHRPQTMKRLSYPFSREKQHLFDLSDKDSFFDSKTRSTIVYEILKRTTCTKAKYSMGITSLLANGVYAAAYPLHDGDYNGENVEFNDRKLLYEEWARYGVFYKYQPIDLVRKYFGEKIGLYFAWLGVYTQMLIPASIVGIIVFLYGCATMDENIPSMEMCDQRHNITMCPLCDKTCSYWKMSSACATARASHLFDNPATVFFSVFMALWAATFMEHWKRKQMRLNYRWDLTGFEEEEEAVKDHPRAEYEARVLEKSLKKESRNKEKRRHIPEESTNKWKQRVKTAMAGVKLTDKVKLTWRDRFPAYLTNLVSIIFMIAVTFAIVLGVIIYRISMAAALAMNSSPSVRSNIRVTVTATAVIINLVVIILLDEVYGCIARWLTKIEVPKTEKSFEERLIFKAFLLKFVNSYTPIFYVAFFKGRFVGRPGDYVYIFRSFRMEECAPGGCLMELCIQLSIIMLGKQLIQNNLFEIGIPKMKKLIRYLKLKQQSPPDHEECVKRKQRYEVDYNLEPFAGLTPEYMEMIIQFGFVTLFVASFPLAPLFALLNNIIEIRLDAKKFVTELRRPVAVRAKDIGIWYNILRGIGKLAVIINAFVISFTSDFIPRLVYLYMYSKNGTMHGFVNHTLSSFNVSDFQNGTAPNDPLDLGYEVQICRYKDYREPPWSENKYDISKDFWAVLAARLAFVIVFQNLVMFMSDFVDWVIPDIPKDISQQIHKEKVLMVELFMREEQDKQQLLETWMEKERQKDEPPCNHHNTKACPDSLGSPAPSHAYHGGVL
Assay: hsYFP fluorescence quenching (Cl^− efflux/I^− influx) assay in NCL-SG3-hsYFP CaCC activity sensor cells
Type: cell-based
Experimental: The halide inside the cell functionally interacts with the halide-sensitive cytoplasmic indicator protein, which leads to a quenching of the signal provided by the halide-sensitive cytoplasmic indicator protein. The more halide (such as e.g. iodide) flows into the cell, the weaker the signal emitted by the halide-sensitive cytoplasmic indicator protein becomes. This alteration of the signal emitted by the halide-sensitive cytoplasmic indicator protein is determined in a third step of the method of the invention. Due to the fact that the influx of halide into the cell is proportional to the efflux of chloride ions, the halide influx is used as a direct measure for chloride secretion. To determine the amount of chloride secretion, the fluorescence decrease is plotted against time (Δfluorescence/Δtime) and the initial slope of the resulting graph represents the iodide influx rate (sec^−1), which in turn is directly proportional to the chloride efflux rate, representing the amount of chloride secretion per time. In a fourth step, this amount of chloride secretion determined in the presence of a test compound is compared to the amount of chloride secretion determined in the absence of a said compound.
Effect of CaCC inhibitors on sweat gland-specific Ca^2+-dependent […] and proportional I^− influx was determined using NCL-SG3-hsYFP cells. Quenching of intracellular hsYFP fluorescence was measured and plotted over time. Exemplary raw data (B) and fitted curves are shown (A). NCL-SG3-hsYFP cells were incubated with 50 μM tannic acid (TA), 25 μM niflumic acid (NFA), 25 μM 5-nitro-2-(3-phenylpropyl-amino) benzoic acid (NPPB), 100 μM epigallocatechin-3-gallate (EGCG) for 15 min and then stimulated with 330 μM ATP.
Sweat gland-specific Ca^2+-dependent Cl^− efflux and a proportional I^− influx was determined using NCL-SG3-hsYFP cells. Quenching of intracellular hsYFP fluorescence was measured and plotted over time. Exemplary fitted curves are shown. NCL-SG3-hsYFP cells were incubated with increasing concentrations of tannic acid (TA) and then stimulated with 330 μM ATP. […] NCL-SG3-hsYFP cells were incubated with increasing concentrations of CaCC inhibitors and quenching of intracellular hsYFP fluorescence was measured after stimulation with ATP. The rate of […] (sec^−1), which is proportional to Ca^2+-dependent […] was calculated from the initial slope of the measured hsYFP fluorescence (ΔYFP fluorescence/Δtime) and is a direct measure of CaCC activity. IC50 values were determined by plotting the percentage of residual CaCC activity against the individual inhibitor concentration.
NCL-SG3-hsYFP cells were routinely cultivated in Williams' Medium E supplemented with 9% Fetal Calf Serum, 3.5 mM Glutamine, 9 ng/μl Hydrocortisone, Insulin-Transferrin-Selenium-Supplement (PAA Laboratories) at 37° C. and 5% CO2. For microplate assays, 20,000 cells were seeded in 96-well black-walled, clear bottom microplates (Costar) and cultivated for 2 days until cells reached confluency. Cells were washed three times with 100 μl modified Krebs-Henseleit (KH) buffer (137 mM NaCl, 2.7 mM KCl, 1.2 mM MgSO4, 1.2 mM KH2PO4, 4.2 mM NaHCO3, 1.3 mM CaCl2, 10 mM HEPES, pH 7.4) and incubated with the test compound in 50 μl KH-buffer for 15 min at 37° C. and 5% CO2. Microplates were transferred into an automated fluorescence plate reader (FlexStation®, Molecular Devices) and cellular hsYFP fluorescence was continuously recorded every 3.5 sec until end of the experiment (excitation at 485 nm, emission at 535 nm, cutoff 515 nm).

Effect on hsYFP quenching by Cl^− efflux/I^− influx mediated by ATP (50 μM, 15 min, then 330 μM ATP) | Structure (SMILES) | Quenching of hsYFP fluorescence after addition of Ca^2+-elevating agent (330 μM) | Concentration giving maximal quenching of hsYFP (dose-dependent stimulation of Ca^2+-dependent Cl^− transport) [µM] | Dose dependence of inhibition of CaCC-mediated Cl^− efflux (increasing inhibitor concentrations, stimulation with 330 μM ATP) | Effect of pretreatment on basal hsYFP quenching (unactivated cells (no ATP))
– | Nc1ncnc2c1ncn2[C@@H]1O[C@H](COP(=O)(O)OP(=O)(O)OP(=O)(O)O)[C@@H](O)[C@H]1O [ATP] | fast quenching of the hsYFP fluorescence without recovery | 330 | – | –
significant reduction of hsYFP quenching | O=C(OC[C@H]1O[C@@H](OC(=O)c2cc(O)c(O)c(OC(=O)c3cc(O)c(O)c(O)c3)c2)[C@H](OC(=O)c2cc(O)c(O)c(OC(=O)c3cc(O)c(O)c(O)c3)c2)[C@@H](OC(=O)c2cc(O)c(O)c(OC(=O)c3cc(O)c(O)c(O)c3)c2)[C@@H]1OC(=O)c1cc(O)c(O)c(OC(=O)c2cc(O)c(O)c(O)c2)c1)c1cc(O)c(O)c(OC(=O)c2cc(O)c(O)c(O)c2)c1 [TA, tannic acid] | – | – | dose-dependent reduction of hsYFP quenching | significant reduction of basal hsYFP quenching

— patent US9809853B2, “Calcium-activated chloride channel involved in human sweat formation” (BRAIN Biotechnology Research and Information Network AG, priority 2012, dated 2017)
